Data on 4 molecules can be found in US9364480B2, “Pharmaceutical composition for preventing or treating cancer, containing enoblock as active ingredient” (GWANGJU INSTITUTE OF SCIENCE AND TECHNOLOGY, priority 2012, dated 2016).

Assay [1] concerns the target T1, Enolase purified from rabbit muscle (Oryctolagus cuniculus, UniProt P25704).
T1 construct: Enolase purified from rabbit muscle was purchased from Sigma-Aldrich; purchased Sigma-Aldrich; host or cells: rabbit muscle
As to the kind of experiment: Enolase activity assay. Format: biochemical. Conditions: purified enolase. The protocol:
FIG. 4. […] (a) Affinity chromatography study for ENOblock in HCT116 cancer cells. […] (b) Sequence identification for the enolase monomer subunit. […] Mascot scores above 100 were deemed to be significant. […] Twenty micrograms of cell lysate from YD-10B oral cancer cells or Huh7 hepatocytes were used as positive controls. […] As a positive control, ENOblock affinity matrix was incubated with 200 μg of HCT 116 cell lysate; 50 μg cell lysate from HCT116 cancer cells was used as a positive control for the enolase antibody.
Enolase purified from rabbit muscle was purchased from Sigma-Aldrich. A single unit of enolase is defined as the amount of enzyme that produces 1 μmol of phosphoenol pyruvate from phospho-D-glycerate/min in standard assay.^52 Enolase activity assay was measured at 37° C. by incubating pure enolase (3-9 U) in a buffer containing 50 mM imidazole-HCl (pH 6.8)(JUNSEI), 2.0 mM MgSO4 (JUNSEI) and 400 mM KCl (JUNSEI) in the absence or presence of ENOblock or NaF (Sigma). The reaction was initiated by adding 1 μmol of 2-phospho-D-glycerate, and the OD was measured after 10 min of reaction time with a spectrophometer at 240 nm.

For the next assay, the system named is zebrafish larvae. Description: Measurement of glucose uptake in zebrafish (2-NBDG). The assay is classed as in vivo. Conditions: 10 μg/mL. The protocol: FIG. 12. […] (a) Schematic of our approach to measure the effect of ENOblock treatment on […] in zebrafish.
At 72 hpf, larvae were placed into a 96-well plate (6 eggs/well in 200 μL E3 water supplemented with 0.2 mM 2-phenylthiourea; Sigma). Drug of interest was added for […]. The solution was then replaced with E3 water supplemented with 600 μM 2-NBDG and incubated for 3 h. The larva were washed with E3 water and anesthetized with 0.02% tricaine-supplemented E3 water. One larva was then placed on a chamber slide, containing 3% methylcellulose in E3 water, for fluorescent microscopy (Leica DM2500 microscope equipped with a DFC425 C digital camera). Images were captured at 50× magnification. The remaining 5 larvae where lysed with 120 μL of CelLytic M solution (Sigma-Aldrich) and sonication (4° C., 10″/5″ pulse, 10 min). Lysed larvae were centrifuged at 10000 rpm for 10 min. 100 μL of the supernatant was transferred to a 96-well plate and fluorescence was measured with a fluorescent microplate reader (SpectraMAX Gemini XS, Molecular Devices; λex=466 nm […]).

Assay [2] addresses recombinant enolase from Schistosoma mansoni (Schistosoma mansoni, UniProt Q27877). The note with it: cited from earlier work.
The target of the next assay is purified enolase (Schistosoma mansoni, UniProt Q27877). Conditions: cited from earlier work.
Assay [3] has as its system pre-adipocytes undergoing adipogenesis. As to the kind of experiment: Adipogenesis lipid accumulation (Oil Red O staining). Format: cell-based. The note with it: without adipogenesis-inducing factors.
The subject of assay [4] is PEPCK expression in HEK cells. As to the kind of experiment: PEPCK expression in kidney cells. The assay is classed as cell-based. The note with it: 1 μg/mL, 24 h. From the text: FIG. 10. […] Error=SD; *=P<0.05 compared to the no drug (DMSO-treated) group. […] Error=SD; *=P<0.05 for reduced PEPCK expression compared to the no drug (DMSO-treated) group.

T1 sequence (P25704 whole entry): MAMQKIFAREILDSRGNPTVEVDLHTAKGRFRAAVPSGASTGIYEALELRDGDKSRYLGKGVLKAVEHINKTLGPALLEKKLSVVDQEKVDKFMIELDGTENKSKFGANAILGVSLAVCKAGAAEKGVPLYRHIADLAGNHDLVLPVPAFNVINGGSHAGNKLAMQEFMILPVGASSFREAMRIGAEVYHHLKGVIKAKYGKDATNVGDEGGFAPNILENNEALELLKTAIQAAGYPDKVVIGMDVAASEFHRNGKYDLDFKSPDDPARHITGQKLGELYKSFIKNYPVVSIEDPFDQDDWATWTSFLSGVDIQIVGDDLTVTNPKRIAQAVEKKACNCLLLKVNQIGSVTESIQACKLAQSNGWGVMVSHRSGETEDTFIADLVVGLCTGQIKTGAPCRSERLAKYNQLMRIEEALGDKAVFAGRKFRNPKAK
Sequence of purified enolase (Q27877 whole entry): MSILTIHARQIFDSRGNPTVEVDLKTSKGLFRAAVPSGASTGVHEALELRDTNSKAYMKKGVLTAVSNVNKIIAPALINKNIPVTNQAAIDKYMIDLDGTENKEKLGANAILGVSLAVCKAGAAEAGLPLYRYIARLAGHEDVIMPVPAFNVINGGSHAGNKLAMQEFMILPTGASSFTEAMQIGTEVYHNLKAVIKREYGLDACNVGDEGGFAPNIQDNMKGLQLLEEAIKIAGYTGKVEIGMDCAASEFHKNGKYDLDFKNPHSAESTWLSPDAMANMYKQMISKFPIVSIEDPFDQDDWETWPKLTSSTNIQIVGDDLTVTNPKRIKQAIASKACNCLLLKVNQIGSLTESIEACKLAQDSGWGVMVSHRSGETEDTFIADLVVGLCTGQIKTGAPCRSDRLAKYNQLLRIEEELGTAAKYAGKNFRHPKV
Sequence of recombinant enolase from Schistosoma mansoni (Q27877 whole entry): as above

Turning to `[F-].[Na+]` [NaF, sodium fluoride, reference compound], the “treatment concentration giving enolase activity level approximated by 2.5 μM ENOblock” value in assay [1] is reported as 1 mM.
Regarding `Cc1cc(O)c2c(c1)C(=O)c1cc(O)cc(O)c1C2=O` [emodin, 6-methyl-1,3,8-trihydroxyanthraquinone, reference compound], the “glucose uptake in larvae (2-NBDG fluorescence microscopy)” value in the assay with zebrafish larvae is recorded as “enhanced glucose uptake in a similar but more intense pattern compared to the zebrafish treated with ENOblock”. Also, the “2-NBDG fluorescence signal intensity in the eye” value with zebrafish larvae (72 hpf larvae, 4 h, vs 2-NBDG alone) was “induced significantly greater fluorescent tagged glucose uptake in the zebrafish eye”.
Turning to `OC(c1cc(C(F)(F)F)nc2c(C(F)(F)F)cccc12)C1CCCCN1` (stereo not shown) [mefloquine], in assay [2], the “direct binding to recombinant enolase” value is “could not directly bind to recombinant enolase from this parasite”. Also, the “inhibition of purified enolase activity” value on purified enolase is given as “could not inhibit purified enolase activity”.
Consider insulin: insulin, for which the “lipid accumulation in preadipocytes (Oil Red O, microscopy)” value in assay [3] is given as “still induced lipid accumulation”. Further, in assay [4], the PEPCK expression entry is “did not reduce PEPCK expression”.
